From US9902728B2, “Pyrrolo and pyrazolopyrimidines as ubiquitin-specific protease 7 inhibitors” (Forma Therapeutics, Inc., priority 2014, dated 2018)

target: T1, USP7 (Homo sapiens, UniProt Q93009); assay: USP7 Assay A (Ubitquin-Rhodamine 110 Assay); format: biochemical; details: USP7 activity in USP7 assay A and B (table does not say which assay per compound); read-out: USP7_IC50
T1 construct: USP7, construct USP7 (208-1102) 6*His, Viva Biotech; 6xHis (C); purchased Viva Biotech
Procedure, shortened: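 Enzyme and compound sat together for 30 min before Ub-Rh110 was added, in buffer of 20 mM Tris-HCl (pH 8.0), 1 mM GSH, 0.03% BGG and 0.01% Triton X-100.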

T1 sequence (Q93009 208-1102): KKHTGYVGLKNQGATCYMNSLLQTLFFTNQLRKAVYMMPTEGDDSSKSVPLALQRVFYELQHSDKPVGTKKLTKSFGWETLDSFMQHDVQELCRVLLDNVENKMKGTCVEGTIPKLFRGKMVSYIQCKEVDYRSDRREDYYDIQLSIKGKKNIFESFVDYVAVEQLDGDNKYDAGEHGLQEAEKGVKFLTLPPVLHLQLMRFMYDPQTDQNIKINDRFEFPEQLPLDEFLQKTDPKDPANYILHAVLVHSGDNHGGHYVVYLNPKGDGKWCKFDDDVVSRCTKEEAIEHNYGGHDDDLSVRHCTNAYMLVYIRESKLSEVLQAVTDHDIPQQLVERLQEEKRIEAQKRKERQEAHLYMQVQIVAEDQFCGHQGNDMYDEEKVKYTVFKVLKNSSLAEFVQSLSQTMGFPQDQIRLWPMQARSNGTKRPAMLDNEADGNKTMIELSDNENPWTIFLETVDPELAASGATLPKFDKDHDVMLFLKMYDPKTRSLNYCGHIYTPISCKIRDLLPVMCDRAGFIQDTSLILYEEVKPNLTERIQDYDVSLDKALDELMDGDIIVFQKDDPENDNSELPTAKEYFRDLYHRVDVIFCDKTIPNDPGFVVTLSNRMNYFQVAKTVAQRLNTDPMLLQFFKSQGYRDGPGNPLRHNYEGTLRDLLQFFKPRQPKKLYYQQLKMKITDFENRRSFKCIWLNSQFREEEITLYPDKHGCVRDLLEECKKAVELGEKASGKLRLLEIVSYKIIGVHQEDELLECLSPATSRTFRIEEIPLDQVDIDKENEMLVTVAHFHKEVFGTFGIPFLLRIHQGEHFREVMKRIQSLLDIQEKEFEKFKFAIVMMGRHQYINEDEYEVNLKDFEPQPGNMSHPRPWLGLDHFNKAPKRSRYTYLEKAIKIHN

SMILES	IC50
Cc1nc2n(n1)CCN(c1ccc(-n3ncc4c(=O)n(CC5(O)CCN(C(=O)c6ccc(F)cc6)CC5)cnc43)cc1)C2 [Compound I-1176]	1 to 10 µM
O=C(c1ccc(F)cc1)N1CCC(O)(Cn2cnc3c(cnn3-c3ccc(N4CCn5ncnc5C4)cc3)c2=O)CC1 [Compound I-1178]	1 to 10 µM
O=C(C1CCC(Oc2cccnn2)CC1)N1CCC(O)(Cn2cnc3c(cnn3-c3ccc(F)cc3)c2=O)CC1 (stereo not shown) [Compound I-1212]	0.2 to 1 µM
O=C(c1ccc(F)cc1)N1CCC(O)(Cn2cnc3c(cnn3-c3ccc(N4CC[C@H](O)C4)cc3)c2=O)CC1 [Compound I-1434]	1 to 10 µM
CC1(C(=O)N2CCC(O)(Cn3cnc4c(cnn4-c4ccc(N5CCC(F)CC5)cc4)c3=O)CC2)CC1 [Compound I-1445]	0.2 to 1 µM
CC1(COc2ccc(-n3ncc4c(=O)n(CC5(O)CCN(C(=O)c6cnc(C7CC7)o6)CC5)cnc43)cc2)CCC1 [Compound I-1508]	0.2 to 1 µM

same assay, conditions: USP7 assay A and B (table does not say which assay per compound); read-out: USP7_IC50

SMILES	IC50
O=C(C1CC1)N1CCC(O)(Cn2cnc3c(cnn3-c3ccc(NCCc4ccccc4)cc3)c2=O)CC1 [Compound I-1187]	1 to 10 µM
COc1ccc(Nc2ccc(-n3ncc4c(=O)n(CC5(O)CCN(C(=O)C6CC6)CC5)cnc43)cc2)cn1 [Compound I-1191]	1 to 10 µM
O=C(C1CC1)N1CCC(O)(Cn2cnc3c(cnn3-c3cccc(NCCN4CCOCC4)c3)c2=O)CC1 [Compound I-1194]	1 to 10 µM
CC(C)OCCNc1cccc(-n2ncc3c(=O)n(CC4(O)CCN(C(=O)C5CC5)CC4)cnc32)c1 [Compound I-1196]	1 to 10 µM
CN1CCCC(CNc2cccc(-n3ncc4c(=O)n(CC5(O)CCN(C(=O)C6CC6)CC5)cnc43)c2)C1 (stereo not shown) [Compound I-1197]	0.2 to 1 µM
O=C(C1CC1)N1CCC(O)(Cn2cnc3c(cnn3-c3ccc(N4CCCC4)cc3)c2=O)CC1 [Compound I-1199]	1 to 10 µM
O=C(C1CC1)N1CCC(O)(Cn2cnc3c(cnn3-c3cccc(N4CCCC4)c3)c2=O)CC1 [Compound I-1200]	0.2 to 1 µM
O=C(C1CC1)N1CCC(O)(Cn2cnc3c(cnn3-c3cccc(N4CCCCC4)c3)c2=O)CC1 [Compound I-1202]	1 to 10 µM
O=C(C1CC1)N1CCC(O)(Cn2cnc3c(cnn3-c3cccc(N4CCC(c5ccccc5)CC4)c3)c2=O)CC1 [Compound I-1205]	1 to 10 µM
CC(=O)NC1CCN(c2ccc(-n3ncc4c(=O)n(CC5(O)CCN(C(=O)C6CC6)CC5)cnc43)cc2)CC1 [Compound I-1208]	1 to 10 µM
CN(C)C1CCN(c2cccc(-n3ncc4c(=O)n(CC5(O)CCN(C(=O)C6CC6)CC5)cnc43)c2)CC1 [Compound I-1209]	0.2 to 1 µM
CC(=O)N1CCN(c2ccc(-n3ncc4c(=O)n(CC5(O)CCN(C(=O)C6CC6)CC5)cnc43)cc2)CC1 [Compound I-1211]	1 to 10 µM
O=C(C1CC1)N1CCC(O)(Cn2cnc3c(cnn3-c3ccc(-c4ccccn4)cc3)c2=O)CC1 [Compound I-1214]	1 to 10 µM
O=C(C1CC1)N1CCC(O)(Cn2cnc3c(cnn3-c3ccc(N4CCC5(CCOCC5)C4)cc3)c2=O)CC1 [Compound I-1216]	1 to 10 µM
O=C(C1CC1)N1CCC(O)(Cn2cnc3c(cnn3-c3cccc(Nc4ccncc4)c3)c2=O)CC1 [Compound I-1232]	1 to 10 µM
O=C(C1CC1)N1CCC(O)(Cn2cnc3c(cnn3-c3ccc(Nc4ccc(N5CCOCC5)cc4)cc3)c2=O)CC1 [Compound I-1234]	1 to 10 µM
O=C(C1CC1)N1CCC(O)(Cn2cnc3c(cnn3-c3cccc(Nc4ccc5ncsc5c4)c3)c2=O)CC1 [Compound I-1257]	0.2 to 1 µM
N#Cc1ccc(Nc2ccc(-n3ncc4c(=O)n(CC5(O)CCN(C(=O)C6CC6)CC5)cnc43)cc2)nc1 [Compound I-1277]	1 to 10 µM
O=C(c1ccc(F)cc1)N1CCC(O)(Cn2cnc3c(cnn3-c3cccc(OCc4ccccc4)c3)c2=O)CC1 [Compound I-1285]	1 to 10 µM
CN(C)C(=O)N1CCC(O)(Cn2cnc3c(cnn3-c3ccc(OCC4CC4)cc3)c2=O)CC1 [Compound I-1289]	1 to 10 µM

SMILES	IC50
CN(C)C(=O)N1CCC(O)(Cn2cnc3c(cnn3-c3ccc(OCC4CCC4)cc3)c2=O)CC1 [Compound I-1295]	1 to 10 µM
NC(=O)COc1ccc(-n2ncc3c(=O)n(CC4(O)CCN(C(=O)c5ccc(F)cc5)CC4)cnc32)cc1 [Compound I-1307]	1 to 10 µM
CN1CCCCC1COc1ccc(-n2ncc3c(=O)n(CC4(O)CCN(C(=O)c5ccc(F)cc5)CC4)cnc32)cc1 (stereo not shown) [Compound I-1313]	0.2 to 1 µM
CN1CCCCC1COc1cccc(-n2ncc3c(=O)n(CC4(O)CCN(C(=O)c5ccc(F)cc5)CC4)cnc32)c1 (stereo not shown) [Compound I-1314]	0.2 to 1 µM
N#Cc1cccc(COc2ccc(-n3ncc4c(=O)n(CC5(O)CCN(C(=O)c6ccc(F)cc6)CC5)cnc43)cc2)c1 [Compound I-1318]	1 to 10 µM
N#CCOc1ccc(-n2ncc3c(=O)n(CC4(O)CCN(C(=O)c5ccc(F)cc5)CC4)cnc32)cc1 [Compound I-1320]	1 to 10 µM
O=C(c1ccc(F)cc1)N1CCC(O)(Cn2cnc3c(cnn3-c3ccc(OCC4CCOCC4)cc3)c2=O)CC1 [Compound I-1324]	1 to 10 µM
O=C(c1ccc(F)cc1)N1CCC(O)(Cn2cnc3c(cnn3-c3cccc(OCC4CCOCC4)c3)c2=O)CC1 [Compound I-1325]	1 to 10 µM
COCCOc1ccc(-n2ncc3c(=O)n(CC4(O)CCN(C(=O)c5ccc(F)cc5)CC4)cnc32)cc1 [Compound I-1363]	1 to 10 µM
O=C(Nc1ccc(-n2ncc3c(=O)n(CC4(O)CCN(C(=O)C5CC5)CC4)cnc32)cc1)C1CC1 [Compound I-1377]	1 to 10 µM
O=C(Nc1ccc(-n2ncc3c(=O)n(CC4(O)CCN(C(=O)C5CC5)CC4)cnc32)cc1)c1ccccc1F [Compound I-1380]	1 to 10 µM
O=C(Nc1ccc(-n2ncc3c(=O)n(CC4(O)CCN(C(=O)C5CC5)CC4)cnc32)cc1)c1ccccn1 [Compound I-1383]	1 to 10 µM
O=C(Nc1ccc(-n2ncc3c(=O)n(CC4(O)CCN(C(=O)C5CC5)CC4)cnc32)cc1)C1CCOCC1 [Compound I-1395]	1 to 10 µM
Cc1oncc1S(=O)(=O)Nc1cccc(-n2ncc3c(=O)n(CC4(O)CCN(C(=O)C5CC5)CC4)cnc32)c1 [Compound I-1400]	1 to 10 µM
O=C(C1CC1)N1CCC(O)(Cn2cnc3c(cnn3-c3ccc(NCC4CCOCC4)cc3)c2=O)CC1 [Compound I-1402]	1 to 10 µM
O=C(C1CC1)N1CCC(O)(Cn2cnc3c(cnn3-c3cccc(NS(=O)(=O)c4cccc(Cl)c4)c3)c2=O)CC1 [Compound I-1406]	1 to 10 µM
CS(=O)(=O)Nc1cccc(-n2ncc3c(=O)n(CC4(O)CCN(C(=O)C5CC5)CC4)cnc32)c1 [Compound I-1417]	1 to 10 µM
Cc1noc(C)c1S(=O)(=O)Nc1ccc(-n2ncc3c(=O)n(CC4(O)CCN(C(=O)C5CC5)CC4)cnc32)cc1 [Compound I-1421]	1 to 10 µM
O=C(C1CC1)N1CCC(O)(Cn2cnc3c(cnn3-c3ccc(NS(=O)(=O)c4ccc(Cl)cc4)cc3)c2=O)CC1 [Compound I-1422]	1 to 10 µM
Cc1ccccc1S(=O)(=O)Nc1ccc(-n2ncc3c(=O)n(CC4(O)CCN(C(=O)C5CC5)CC4)cnc32)cc1 [Compound I-1425]	1 to 10 µM

SMILES	IC50
O=C(C1CC1)N1CCC(O)(Cn2cnc3c(cnn3-c3ccc(NS(=O)(=O)c4cccc(Cl)c4)cc3)c2=O)CC1 [Compound I-1428]	1 to 10 µM
CS(=O)(=O)Nc1ccc(-n2ncc3c(=O)n(CC4(O)CCN(C(=O)C5CC5)CC4)cnc32)cc1 [Compound I-1431]	1 to 10 µM
O=C(C1CC1)N1CCC(O)(Cn2cnc3c(cnn3-c3ccc(NS(=O)(=O)C4CC4)cc3)c2=O)CC1 [Compound I-1432]	1 to 10 µM
O=C(C1CC1)N1CCC(O)(Cn2cnc3c(cnn3-c3ccc(NS(=O)(=O)Cc4ccc(F)cc4)cc3)c2=O)CC1 [Compound I-1433]	1 to 10 µM
O=C(c1cnc(C2CC2)o1)N1CCC(O)(Cn2cnc3c(cnn3-c3ccc(C(F)(F)F)cc3)c2=O)CC1 [Compound I-1437]	1 to 10 µM
O=C(Nc1ccc(-n2ncc3c(=O)n(CC4(O)CCN(C(=O)C5CC5)CC4)cnc32)cc1)Nc1cccnc1 [Compound I-1448]	1 to 10 µM
CN(C)C(=O)N1CCC(O)(Cn2cnc3c(cnn3-c3ccc(N4CCC(F)(F)CC4)cc3)c2=O)CC1 [Compound I-1461]	1 to 10 µM
CN(C)C1CCN(C(=O)c2cccc(-n3ncc4c(=O)n(CC5(O)CCN(C(=O)C6CC6)CC5)cnc43)c2)CC1 [Compound I-1468]	1 to 10 µM
CN(C)CCNC(=O)c1ccc(-n2ncc3c(=O)n(CC4(O)CCN(C(=O)C5CC5)CC4)cnc32)cc1 [Compound I-1487]	0.2 to 1 µM
O=C(Nc1ccccc1)c1ccc(-n2ncc3c(=O)n(CC4(O)CCN(C(=O)C5CC5)CC4)cnc32)cc1 [Compound I-1490]	1 to 10 µM
O=C(Nc1ccc(F)cc1)c1ccc(-n2ncc3c(=O)n(CC4(O)CCN(C(=O)C5CC5)CC4)cnc32)cc1 [Compound I-1492]	1 to 10 µM
O=C(Nc1nccs1)c1ccc(-n2ncc3c(=O)n(CC4(O)CCN(C(=O)C5CC5)CC4)cnc32)cc1 [Compound I-1493]	1 to 10 µM
CN(C)C1CCN(C(=O)c2ccc(-n3ncc4c(=O)n(CC5(O)CCN(C(=O)C6CC6)CC5)cnc43)cc2)CC1 [Compound I-1496]	1 to 10 µM
O=C(Nc1ccc(-n2ncc3c(=O)n(CC4(O)CCN(C(=O)C5CC5)CC4)cnc32)cc1)N1CCCC1 [Compound I-1499]	1 to 10 µM
CN(C)C(=O)Nc1cccc(-n2ncc3c(=O)n(CC4(O)CCN(C(=O)C5CC5)CC4)cnc32)c1 [Compound I-1501]	1 to 10 µM
Cc1ccc(-n2ncc3c(=O)n(CC4(O)CCN(C(=O)c5ccc(Oc6ccccn6)cc5)CC4)cnc32)cc1 [Compound I-1510]	0.2 to 1 µM
Cc1ccc(-n2ncc3c(=O)n(CC4(O)CCN(C(=O)c5cnc(C)o5)CC4)cnc32)cc1 [Compound I-1514]	0.2 to 1 µM
O=C(c1ccc(Oc2ccccn2)cc1)N1CCC(O)(Cn2cnc3c(cnn3-c3ccc(Cl)cc3)c2=O)CC1 [Compound I-1519]	1 to 10 µM
